This is an account of results in patent publication US9873696B2, “Neprilysin inhibitors” (THERAVANCE BIOPHARMA R&D IP, LLC, priority 2010, dated 2018).

Where only a bound is given, the exact number is not on record here.

The test concerns the target T1, human NEP (Homo sapiens, UniProt P08473).
T1 construct: purchased R&D Systems, Minneapolis, Minn; 1182-ZN
Briefly: In vitro enzyme inhibition assay at human NEP (Assay 1). Format: biochemical. Particulars: recombinant enzyme, fluorogenic peptide substrate, 37° C. The gist of the method: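 Recombinant enzyme preincubated with compound 30 min at 37 °C, then 10 μM Mca-D-Arg-Arg-Leu-Dap-(Dnp)-OH added in 50 mM HEPES pH 7.5, 100 mM NaCl, 0.01% Tween-20, 10 μM ZnSO4; stopped after 20 min with acetic acid. Fluorescence read at 320/405 nm; Ki from nonlinear fit of v=v0/[1+(I/K′)], reported as pKi.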

T1 sequence (P08473 whole entry): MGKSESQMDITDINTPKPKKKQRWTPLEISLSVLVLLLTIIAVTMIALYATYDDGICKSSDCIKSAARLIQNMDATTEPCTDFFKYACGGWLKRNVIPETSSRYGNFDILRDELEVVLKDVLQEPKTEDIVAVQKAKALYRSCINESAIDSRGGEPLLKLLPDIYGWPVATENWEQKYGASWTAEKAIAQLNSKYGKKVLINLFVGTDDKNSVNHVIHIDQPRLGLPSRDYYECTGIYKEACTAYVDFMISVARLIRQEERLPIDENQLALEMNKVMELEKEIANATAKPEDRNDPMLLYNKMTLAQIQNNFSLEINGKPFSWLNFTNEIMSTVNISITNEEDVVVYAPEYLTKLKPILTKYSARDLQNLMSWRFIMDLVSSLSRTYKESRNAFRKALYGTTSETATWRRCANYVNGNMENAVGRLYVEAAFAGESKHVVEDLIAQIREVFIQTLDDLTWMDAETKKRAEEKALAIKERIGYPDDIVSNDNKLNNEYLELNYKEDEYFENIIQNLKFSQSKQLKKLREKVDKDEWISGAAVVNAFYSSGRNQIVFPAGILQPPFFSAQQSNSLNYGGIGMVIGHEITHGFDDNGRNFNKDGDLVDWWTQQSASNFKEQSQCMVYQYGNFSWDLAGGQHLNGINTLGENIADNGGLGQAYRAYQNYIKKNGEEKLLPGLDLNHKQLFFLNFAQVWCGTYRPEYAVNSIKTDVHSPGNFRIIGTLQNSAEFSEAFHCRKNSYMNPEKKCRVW

`Cc1ccc(Cl)cc1-c1ccc(CN(C[C@@H](O)C(=O)O)NC(=O)c2cn(O)nn2)cc1` [Example 8-80, (R)-3-[N-(5′-Chloro-2′-methyl-biphenyl-4-ylmethyl)-N′-(1-hydroxy-1H-[1,2,3]triazole-4-carbonyl)-hydrazino]-2-hydroxy-propionic acid]: the Ki is no more than 1 nM. The figure for `O=C(NN(Cc1ccc(-c2cc(Cl)cc(Cl)c2)cc1)C[C@@H](O)C(=O)O)c1cn(O)nn1` [Example 8-81, (R)-3-[N-(3′,5′-Dichloro-biphenyl-4-ylmethyl)-N′-(1-hydroxy-1H-[1,2,3]triazole-4-carbonyl)-hydrazino]-2-hydroxy-propionic acid] is 12.6 to 100 nM. Consider `O=C(NN(Cc1ccc(-c2cc(Cl)ccc2F)cc1)C[C@@H](O)C(=O)O)c1n[nH]c(Cl)n1` [Example 8-82, (R)-3-[N-(5′-Chloro-2′-fluoro-biphenyl-4-ylmethyl)-N′-(5-chloro-1H-[1,2,4]triazole-3-carbonyl)-hydrazino]-2-hydroxy-propionic acid], for which the Ki was no more than 1 nM.

`O=C(NN(Cc1ccc(-c2cc(Cl)ccc2F)cc1)C[C@@H](O)C(=O)O)c1cnc(O)s1` [Example 8-83, (R)-3-[N-(5′-Chloro-2′-fluoro-biphenyl-4-ylmethyl)-N′-(2-hydroxy-thiazole-5-carbonyl)-hydrazino]-2-hydroxy-propionic acid]: the Ki is no more than 1 nM. The figure for `O=C(NN(Cc1ccc(-c2cccc(Cl)c2)cc1F)C[C@@H](O)C(=O)O)c1cc(O)no1` [Example 9A, (R)-3-[N-(3′-Chloro-3-fluorobiphenyl-4-ylmethyl)-N′-(3-hydroxyisoxazole-5-carbonyl)-hydrazino]-2-hydroxpropionic Acid] is no more than 1 nM; for `O=C(NN(Cc1ccc(-c2ccccc2)cc1F)C[C@@H](O)C(=O)O)c1cc(O)no1` [Example 10-1, (R)-3-[N-(3-Fluoro-biphenyl-4-ylmethyl)-N′-(3-hydroxy-isoxazole-5-carbonyl)-hydrazino]-2-hydroxy-propionic acid] it is 1.26 to 10 nM; for `N#Cc1cc(-c2cccc(Cl)c2)ccc1CN(C[C@@H](O)C(=O)O)NC(=O)c1cc(O)no1` [Example 10-2, (R)-3-[N-(3′-Chloro-3-cyano-biphenyl-4-ylmethyl)-N′-(3-hydroxy-isoxazole-5-carbonyl)-hydrazino]-2-hydroxy-propionic acid] it is 1.26 to 10 nM. As for `O=C(NN(Cc1ccc(-c2cccc(Cl)c2)c(Cl)c1)C[C@@H](O)C(=O)O)c1cc(O)no1` [Example 10-3, (R)-3-[N-(2,3′-Dichloro-biphenyl-4-ylmethyl)-N′-(3-hydroxy-isoxazole-5-carbonyl)-hydrazino]-2-hydroxy-propionic acid], the figure is no more than 1 nM.

With `O=C(NN(Cc1ccc(-c2cccc(Cl)c2)c(F)c1)C[C@@H](O)C(=O)O)c1cc(O)no1` [Example 10-6, (R)-3-[N-(3′-Chloro-2-fluoro-biphenyl-4-ylmethyl)-N′-(3-hydroxy-isoxazole-5-carbonyl)-hydrazino]-2-hydroxy-propionic acid], the Ki is no more than 1 nM. Consider `O=C(NN(Cc1ccc(-c2cc(Cl)ccc2F)cc1Cl)C[C@@H](O)C(=O)O)c1cc(O)no1` [Example 10-7, (R)-3-[N-(3,5′-Dichloro-2′-fluoro-biphenyl-4-ylmethyl)-N′-(3-hydroxy-isoxazole-5-carbonyl)-hydrazino]-2-hydroxy-propionic acid], for which the Ki was no more than 1 nM. As for `O=C(NN(Cc1ccc(-c2cccc(Cl)c2)cc1F)C[C@@H](O)C(=O)O)c1nnn[nH]1` [Example 10-8, (R)-3-[N-(3′-Chloro-3-fluoro-biphenyl-4-ylmethyl)-N′-(1H-tetrazole-5-carbonyl)-hydrazino]-2-hydroxy-propionic acid], the figure is 1.26 to 10 nM; as for `O=C(NN(Cc1ccc(-c2cccc(Cl)c2)cc1F)C[C@@H](O)C(=O)O)c1cn(O)nn1` [Example 10-9, (R)-3-[N-(3′-Chloro-3-fluoro-biphenyl-4-ylmethyl)-N′-(1-hydroxy-1H-[1,2,3]triazole-4-carbonyl)-hydrazino]-2-hydroxy-propionic acid], no more than 1 nM; as for `O=C(NN(Cc1ccc(-c2cc(Cl)ccc2F)cc1Cl)C[C@@H](O)C(=O)O)c1c[nH]nn1` [Example 10-10, (R)-3-[N-(3,5′-Dichloro-2′-fluoro-biphenyl-4-ylmethyl)-N′-(1H-[1,2,3]triazole-4-carbonyl)-hydrazino]-2-hydroxy-propionic acid], no more than 1 nM.

Turning to `O=C(NN(Cc1ccc(-c2cccc(Cl)c2)cc1Cl)C[C@@H](O)C(=O)O)c1c[nH]nn1` [Example 10-11, (R)-3-[N-(3,3′-Dichloro-biphenyl-4-ylmethyl)-N′-(1H-[1,2,3]triazole-4-carbonyl)-hydrazino]-2-hydroxy-propionic acid], the Ki is no more than 1 nM.
